Results published in article PMC9322082, “Improvement in Solubility–Permeability Interplay of Psoralens from Brosimum gaudichaudii Plant Extract upon Complexation with Hydroxypropyl-β-cyclodextrin” (Molecules, 2022).
Converted amounts (≈) assume the structure as drawn. “And” between values parts separate entries of the source, which are not always exact repeats. Identical values can stand only once. Like-named read-outs stand apart in the source and are kept apart here. Each block holds one compound with its values, some of them ahead of it.

Experiments:
[1] = Ex vivo rat jejunal permeability (MTS-Snapwell system, A–B); type: in vitro ADME; details: female, Wistar, pH 7.4, pure compound, KRB, without stirring (0 rpm)
[2] = Phase solubility studies with HP-β-CD in KRB buffer; type: physicochemical; details: for solubility at 7 d: KRB buffer, 37 °C, thermodynamic from solid
Protocol: Phase solubility studies were performed in KRB buffer solutions (pH 7.4), as described by Higuchi and Connors. […] Samples were centrifuged (4000 rpm, 5 min) and filtered (Nylon filter; 0.45 µm) prior to the psoralens content analysis by the HPLC-DAD validated method.
The complexation efficiency (CE) was determined by using the slope of the linear phase solubility diagram as follows:CE = slope/(1 − slope)(2)

[3] = system: rat jejunum; assay: Ex vivo rat jejunal permeability (MTS-Snapwell system, A–B); type: in vitro ADME
Protocol: (§1) Study protocol for female Wistar rats (12–14 weeks old) was approved by the Ethics Committee on Animal Use (#066/15) at the Federal University of Goiás, Goiás, Brazil. One week before starting the experiment, all animals were acclimatized at controlled conditions with regulated access to a standard food (22 ± 2 °C, 12-h light/dark cycle). After this, they fasted for 12 h with free access to water. All animals (body weight = 215 ± 12 g) were then anesthetized using a mixture of ketamine/xylazine (90.0/7.5 mg/kg). Rat jejunum was removed and immediately placed into an ice-cold KRB solution. The jejunum (20 mm) seromuscular layer was carefully stripped off from the membrane and mounted in the MTS-Snapwell system. Next, unidirectional drug transport was measured from the apical to basolateral side (A–B).
(§2) Sample aliquots (400 µL) were placed in the donor compartment (apical side).
(§3) Drug transport was measured by collecting samples (500 µL) from the receiver chamber (basolateral side) at 0, 20, 30, 40, 60, 90, and 120 min. Receiver samples were replaced with equal volume of fresh KRB solution (37 °C). The system was maintained on a plate shaker (60 rpm) inside a humidified incubator (37 ± 0.5 °C) in a controlled atmosphere (95% O2, and 5% CO2), before and during the transport experiment. Samples were analyzed by the HPLC-DAD validated method.
(§4) The change in donor and receiver concentrations was taken into consideration when the apparent permeability coefficient (Papp) was calculated using to the following equation:Papp = dQ/dt(1/CD A)(3) where dQ/dt is the appearance rate of the drug in the receiver compartment, CD is the concentration of the drug in the donor chamber at each sample interval, and A is the surface area (0.1 cm^2) of the tissue segment. The initial concentration of the drug in the donor compartment was determined experimentally, and donor concentrations at each time point were obtained by the calculation of the mass balance.
(§5) Integrity of intestinal tissue segments mounted in the MTS-Snapwell system was assessed by measuring the transepithelial electrical resistance (TEER) using the KRB solution at 37 °C as the conducting medium. Viable intestinal segments (>30 Ω·cm^2) were mounted on the permeation apparatus and subjected to a preincubation period (30 min) under a controlled atmosphere (95% O2 and 5% CO2) before starting the experiments.

[4] = as above; type: in vitro ADME; details: female, Wistar, rat
Protocol: as §1, §2, §3, §4, §5

[5] = Preliminary in vivo studies in rats (plasma AUC); details: rat, n = 3
[6] = system: rat jejunum; set-up: method as in PMID 32942105; details: 0.58 mM; BCS low/high permeability class boundary marker; n = 41; cited from earlier work
[7] = system: jejunal tissue; assay: Viability of intestinal tissue segments by TEER; type: in vitro ADME, rat
Protocol: The effects of HP-β-CD on the viability of intestinal tissue segments mounted in the MTS-Snapwell system was evaluated during incubation time (120 min) at 37 °C. For this purpose, TEER values in the presence and absence of 20% (w/w) HP-β-CD were compared.
as §5

[8] = pH 7.4, marker in EBGT plant extract, HP-β-CD 70 mM
[9] = pH 7.4, marker in EBGT plant extract, KRB solution without HP-β-CD
[10] = pH 7.4, pure compound, HP-β-CD 70 mM
[11] = pH 7.4, pure compound, KRB solution without HP-β-CD, stirring 60 rpm, 120 min

Papp at 120 min [1]: 7.8 ± 1.91 ×10⁻⁶ cm/s | Kc fold lower in EBGT compared to pure compound ([2]; EBGT marker vs pure compound): ~1.8 fold | solubility at 7 d ([2]; pH 7.4, aqueous buffer, marker in EBGT plant extract (9.0 mg/mL), KRB pH 7.4, 37 °C, absence of HP-β-CD, read-out: intrinsic solubility (S0) in EBGT): 38 ± 2 µM (≈ 8.22 µg/mL) | solubility at 7 d ([2]; pH 7.4, aqueous buffer, pure compound, KRB buffer pH 7.4, 37 °C, absence of HP-β-CD, read-out: intrinsic solubility (S0)): 32 ± 1 µM (≈ 6.92 µg/mL) | solubility at 7 d ([2]; pH 7.4, aqueous with cosolvent or surfactant or cyclodextrin, aqueous solubility with 70 mM HP-β-CD in plant extract, marker in EBGT, 70 mM HP-β-CD, KRB pH 7.4, 37 °C): 720 ± 40 µM (≈ 156 µg/mL) | solubility at 7 d ([2]; pH 7.4, aqueous with cosolvent or surfactant or cyclodextrin, aqueous solubility with 70 mM HP-β-CD, pure compound, 70 mM HP-β-CD, KRB pH 7.4, 37 °C): 930 ± 7 µM (≈ 201 µg/mL) | complexation efficiency (CE) with HP-β-CD in EBGT ([2]; marker in EBGT plant extract): 0.010 ± 0.001 | intrinsic solubility (S0) in EBGT ([2]; marker in EBGT plant extract (9.0 mg/mL), KRB pH 7.4, 37 °C, absence of HP-β-CD): 40 ± 2 µM | Kc (stability constant) with HP-β-CD in EBGT ([2]; marker in EBGT plant extract, KRB pH 7.4, 37 °C): 251.2 ± 1.4 M⁻¹ | solubility increase ([2]; marker in EBGT, 70 mM HP-β-CD vs no HP-β-CD): 18 fold | complexation efficiency (CE) with HP-β-CD ([2]; pure compound): 0.014 ± 0.001 | phase solubility diagram profile (Higuchi-Connors) ([2]; pure compound with HP-β-CD, indicates 1:1 complex): AL type | intrinsic solubility (S0) ([2]; pure compound, KRB buffer pH 7.4, 37 °C, absence of HP-β-CD): 30 ± 1 µM | Kc (stability constant) of HP-β-CD inclusion complex ([2]; pure compound, KRB pH 7.4, 37 °C, 1:1 complex): 449.9 ± 16.6 M⁻¹ and < 500 M⁻¹ | permeability rate decrease after adding HP-β-CD ([3]; EBGT markers): 4 fold | permeability rate decrease after adding HP-β-CD ([3]; pure standards): 6 fold | Papp at 120 min [4, 8]: 3.04 ± 1.19 ×10⁻⁶ cm/s | Papp at 120 min [4, 9]: 10.7 ± 1.73 ×10⁻⁶ cm/s | Papp at 120 min [4, 10]: 2.05 ± 0.81 ×10⁻⁶ cm/s | Papp at 120 min [4, 11]: 11.2 ± 3.28 ×10⁻⁶ cm/s | AUC ([5]; EBGT in HP-β-CD 70 mM solution, dose 0.12 mg/kg): 377 ng·h/mL | AUC ([5]; EBGT uncomplexed, dose 1.5 g/kg): 516 ng·h/mL
Structure (SMILES): COc1c2ccoc2cc2oc(=O)ccc12 [5-MOP, 5-methoxypsoralen]

Structure (SMILES): COCCc1ccc(OCC(O)CNC(C)C)cc1 (centres unmarked) [metoprolol]
Papp [6]: 6.21 ± 2.63 × 10^−6 cm/s

Structure (SMILES): CC(O)COC[C@H]1O[C@@H]2O[C@H]3[C@H](O)[C@@H](O)[C@@H](O[C@H]4[C@H](O)[C@@H](O)[C@@H](O[C@H]5[C@H](O)[C@@H](O)[C@@H](O[C@H]6[C@H](O)[C@@H](O)[C@@H](O[C@H]7[C@H](O)[C@@H](O)[C@@H](O[C@H]8[C@H](O)[C@@H](O)[C@@H](O[C@H]1[C@H](O)[C@H]2O)O[C@@H]8COCC(C)O)O[C@@H]7COCC(C)O)O[C@@H]6COCC(C)O)O[C@@H]5COCC(C)O)O[C@@H]4COCC(C)O)O[C@@H]3COCC(C)O (stereo partly drawn) [HP-β-CD, 2-hydroxypropyl-β-cyclodextrin]
TEER after incubation ([7]; 20% (w/w) HP-β-CD, 120 min, 37 °C, n = 16, control KRB 32 ± 9, p = 0.99): 29 ± 7 Ω·cm^2 | effect on viability of jejunal tissue ([7]; HP-β-CD at high concentration (20% w/w)): does not affect the viability of jejunal tissue

Papp at 120 min [1]: 20.5 ± 2.82 ×10⁻⁶ cm/s | permeability rate decrease after adding HP-β-CD ([3]; EBGT markers): 4 fold | permeability rate decrease after adding HP-β-CD ([3]; pure standards): 6 fold | Papp at 120 min [4, 8]: 3.86 ± 1.81 ×10⁻⁶ cm/s | Papp at 120 min [4, 9]: 17.6 ± 1.35 ×10⁻⁶ cm/s | Papp at 120 min [4, 10]: 3.82 ± 0.62 ×10⁻⁶ cm/s | Papp at 120 min [4, 11]: 21.4 ± 3.81 ×10⁻⁶ cm/s
Structure (SMILES): O=c1ccc2cc3ccoc3cc2o1 [PSO, Psoralen]
